# Tests used:
# [1] = tested on: human CD34^+ cord blood (hCD34^+ CB) cells; assay: In vitro chemotaxis assay towards SDF1α; type: cell-based; conditions: 10 μM, 4 hours, 37° C.; 50 ng/ml SDF1α vs DMSO or 0 ng/ml SDF1α
# Method: Chemotaxis assays were performed using 96-well chemotaxis chambers, […] pore size polycarbonate membrane (Corning Inc., Corning, N.Y.) in accordance with manufacturer's instructions. Briefly, human CD34^+ cord blood (hCD34^+ CB) cells were obtained from All Cells and were thawed according to manufacturer's instruction. The cells were then treated for 4 hours at 37° C. with 16,16-dimethyl PGE2 or DMSO control at a concentration of 10 μM in StemSpan media (Stem Cell Technology, Vancouver, Canada). The cells were then washed by centrifugation (300 g for 10 minutes) and resuspended in transwell assay buffer (Phenol Red Free RPMI media (Mediatech), 0.5% lipid free BSA (Sigma-Aldrich) at a concentration of 40,000-60,000 cells/75 ul. Seventy-five μl of cell suspension was added to the upper chamber of the plate, while 235 μl of transwell assay media containing 0 or 50 ng/ml SDF1α (R&D system, Minneapolis, Minn.) was added to the bottom well. Total cell number in the lower well was obtained by flow cytometry, using 7AAD (BD Biosciences) to exclude dead cells, after 4 hours of incubation at 37° C., 5% CO2. […] Percent migration was calculated by dividing the number of the cells in the lower well by the total cell input multiplied by 100. Samples were analyzed in triplicate, the data was then averaged for statistical analysis.
# [2] = tested on: CXCR4 cell-surface protein on CD34^+ cord blood cells; assay: CXCR4 surface expression analysis by flow cytometry; type: cell-based, human; conditions: 10 μM; for CD34+ cord blood cells with detectable CXCR4 expression: 2 hours at 37° C.
# Method: CD34^+ cord blood cells were treated with 10 μM 16,16-dimethyl PGE2 or DMSO in StemSpan media for 2 hours at 37° C. or for 1 hour at 4° C. After treatment, the cells were washed in StemSpan media, centrifuged for 10 minutes at 300× g and resuspended in StemSpan media containing cytokines (e.g., CC100) to promote CD34^+ cell survival and incubated at 37° C. for 1, 6 and 24 hours. After the 1, 6 or 24 hour incubation, cells were centrifuged and resuspended in staining media containing the Lineage cocktail, 1-FITC, […], CXCR4(CD184)-PE, and incubated on ice for 15 minutes. Fresh staining media was then added to the cells, and the cells were centrifuged at 300 g for 10 minutes, twice. The stained cells were acquired on a Guava EasyCyte 8HT and analysis was performed using FloJo Software Package (Treestar).
# CXCR4 cell-surface expression is important for stem cell homing to the bone marrow hematopoietic niche. […] Cells were treated for 2 hours at 37 or for 1 hour at 4° C. with either 10 μM 16,16-dimethyl PGE2 or DMSO control in StemSpan media. CXCR4 cell-surface protein expression was assessed 1, 6 and 24 hours after the end of treatment by flow cytometry.
# [3] = tested on: Murine whole bone marrow (WBM) cells; assay: Colony forming Unit Spleen at day 12 (CFU-S12) assay; type: in vivo, C57Bl/6 mice; conditions: 10 μM; for CFU-S12 number: WBM
# Method: Colony forming Unit Spleen at day 12 (CFU-S12) assays were performed as described in North et al., Nature. 2007 Jun. 21; 447(7147):1007-11. […] After treatment, the cells were washed by centrifugation and resuspended in PBS for tail-vein injection into C57Bl/6 recipients (2×5/treatment) that had been previously lethally irradiated at 10.5Gy. 50,000 cells were injected per recipient. […]
# human CD34^+ cells = assay: Microfluidic qPCR using the Fluidigm platform (signature genes of Table 3); type: cell-based; conditions: 37° C.
# Method: Real-time PCR transcript quantitation from 16,16-dimethyl PGE2 ex vivo treated CD34+ cell samples was performed using the BioMark Dynamic Array microfluidics system (Fluidigm Corporation, South San Francisco, Calif., USA). Total RNA was isolated from treated cells using Pico Pure RNA Isolation Kit (Molecular Devices, Sunnyvale, Calif., USA). Complimentary DNA (cDNA) was reverse transcribed from 50 ng of isolated total RNA using the High-Capacity cDNA Reverse Transcription Kit (Life Technologies Corporation, Carlsbad, Calif., USA).
# cDNA was pre-amplified for specific target genes (96) using a 200 nM mixture of 96 gene specific primer pairs (see Table 1), including 6 reference control genes using the TaqMan PreAmp Master Mix Kit (Life Technologies) protocol. Specific target amplification (STA) from cDNA was performed using 14 cycles of amplification with the standard cycling conditions using the manufacturer's protocol. EvaGreen dye (Biotium, Inc. Hayward, Calif., USA) was added according to Fluidigm's EvaGreen protocol to detect amplified products. For samples, the reaction mix contained 3.0 μL Gene Expression Master Mix (Life Tech.), 0.3 μL Sample Loading Buffer (Fluidigm), 0.3 μL 20× EvaGreen dye (Biotium, Inc.), 1.5 μL diluted (1:5 sterile nH2O) STA cDNA, and 0.9 μL sterile diH2O for loading into the sample inlets of the 96.96 Dynamic Array (Fluidigm).
# Samples were run in replicates, from 5 to 9 wells. For primer pairs, the reaction mix contained 2.5 μL Gene Specific Primer pairs (20 μM) and 2.5 μL Assay Loading Buffer (Fluidigm) for loading into the assay inlets on the 96.96 Dynamic Array (Fluidigm). 96.96 Dynamic arrays were loaded using a NanoFlex IFC Controller HX (Fluidigm) and real-time reactions were performed using a BioMark Real-Time PCR System (Fluidigm).
# Results were analyzed using BioMark Real-Time PCR Analysis software. Average Cts were calculated from the sample replicates and delta-delta Cts (ΔΔCt) were calculated using the mean of 6 reference genes (ACTB, GAPDH, HPRT1, QARS, ARPC2 and LRIG2) against a vehicle only sample. Cts above 28 or amplified products with inappropriate melting curve properties were excluded from the calculations.
# A microfluidic qPCR platform was also used to measure expression changes of a 16,16-dimethyl PGE2 gene expression signature of the genes listed in Table 3 in human CD34^+ cells at different incubation times.
# Further, gene expression signatures were measured on cells that received short pulse treatments with 16,16-dimethyl PGE2 followed by a recovery period in the absence of the drug. Human CD34^+ cells were incubated for different times in the presence of 16,16-dimethyl PGE2 followed by a wash and recovery period in media designed to reflect the in vivo setting. The experimental design matched the ex vivo treatment paradigm where cells are treated, washed to remove the drug and then administered to the patient. CD34^+ cells were incubated with 16,16-dimethyl PGE2 at 37° C. for 5, 15, 30, 60, or 120 minutes and the gene expression signatures were analyzed. For incubation periods less than 120 minutes, the cells were washed in media to remove the 16,16-dimethyl PGE2 and then the cells were incubated for the remaining period in media to allow time for gene expression to take place.
smiles,measurement,setting,value
"CCCCC(C)(C)[C@H](O)/C=C/[C@H]1[C@H](O)CC(=O)[C@@H]1C/C=C\CCCC(=O)O [16,16-dimethyl PGE2]",number of migrating CD34+ cells,[1],significantly increased
same,CXCR4 expression after treatment at 4° C.,[2]; 4° C.,did not result in an increase in CXCR4 expression
same,CD34+ cord blood cells with detectable CXCR4 expression,[2]; 1 hour after treatment,48%
same,CD34+ cord blood cells with detectable CXCR4 expression,[2]; 6 hours post-treatment,34.7%
same,level of CXCR4 compared to DMSO treated cells,[2]; 24 hours post-treatment,substantially the same
same,number of hematopoietic progenitor cells (FIG. 19A),[3]; 37° C. incubation,increases the number of hematopoietic progenitor cells
same,CFU-S12 number,[3]; 4° C. for 1 hour,8.5±1.3 colonies
same,CFU-S12 number,[3]; 37° C. for 1 hour,11.2±1.5
same,CFU-S number compared to DMSO treated cells,"[3]; murine bone marrow, 4° C. treatment",small increase in CFU-S number
same,pulse incubation giving maximal gene expression changes,human CD34^+ cells; 10 μM,about 2 hours
same,constant exposure after which suitable gene expression signatures were detectable,"human CD34^+ cells; 10 μM, FIG. 14A",at least 60 minutes
same,constant exposure giving maximal gene expression response,"human CD34^+ cells; 10 μM, FIG. 14A-B",after at least about two hours
same,pulse incubation after which recognizable gene expression signatures were observed,"human CD34^+ cells; 10 μM, recovery to 120 minutes total",about 30 minutes
same,gene expression response to short pulse treatments (5-15 minutes),"human CD34^+ cells; 10 μM, recovery to 120 minutes total, FIGS. 15A-15B",not sufficient
same,concentration at which the gene expression signature was maximal,"human CD34^+ cells; 2 hours, FIGS. 16A-16B",10 µM

# Reference: patent US20200339953A1, “HEMATOPOIETIC STEM AND PROGENITOR CELL THERAPY” (priority 2010, published 2020)
